Test results: patent publication US20240174675A1, “SMALL MOLECULE REGULATORS OF ALVEOLAR TYPE 2 CELL PROLIFERATION FOR THE TREATMENT OF PULMONARY DISEASES” (THE SCRIPPS RESEARCH INSTITUTE, priority 2021, published 2024)
“Also recorded” adds a separate entry of the source.

How the values were obtained:
[1] = tested on: bleomycin induced lung fibrosis in mice; assay: Bleomycin induced lung fibrosis model; assay type: in vivo, C57BL/6J mice; conditions: for efficacy in combination with Nintedanib: Compound 46 0.5 mg/kg IT, E4D, Bliss independence, BALF protein content and Ashcroft scoring (FIG. 4)
Description: Bleomycin (Hospira) was used to induce lung fibrosis in mice. Body weight matched (24 gram˜28 gram) male C57BL/6J mice at 10-12 weeks of age were selected to use in bleomycin model.
(§1) For oral delivery, DPP4 inhibitors were dissolved in PBS resulting in clear solution. Vehicle control or DPP4 inhibitors were dosed at 10 ml/kg through oral gavage once or twice a day selected based on PK profile. For intratracheally delivered DPP4 inhibitors, compounds were dissolved in PBS resulting in clear solution. Vehicle control or DPP4 inhibitors were dosed at 2 ml/kg through a 22 g flexible catheter every four days.
0.5 U/kg Bleomycin or PBS in sham group was intratracheally injected into mice lung at day 0. DPP4 inhibitors or vehicle control were given to mice starting from one day before bleomycin injection (day −1).
All animals were sacrificed at day 20 after bleomycin injection. Bronchoalveolar lavage fluid (BALF) was retrieved using standard method. 1 ml 4% formalin was used to inflate the lung, which was subsequently fixed in 4% formalin for 24 hours and preserved in […] until histological process.
For readouts, body weight was measured every day; total protein content in BALF was quantified using BCA assay; pulmonary fibrosis was assessed using Masson's trichrome staining.

[2] = tested on: LPS induced acute lung injury in mice; assay: LPS-induced acute lung injury (ALI) model; assay type: in vivo, C57BL/6J mice; conditions: mouse ALI model; every other day via intratracheal administration
Description: LPS from E. coli […] (Sigma) was used to induce acute lung injury in mice. Body weight matched (19 gram-22 gram) female C57BL/6J mice at 9-11 weeks of age were selected to use in ALI model.
as §1, with “other day.” for “four days.”
LPS (1.5 mg/kg for testing orally delivered DPP4 inhibitors and 1.2 mg/kg for testing intratracheally delivered DPP4 inhibitors) or PBS in sham group was intratracheally injection into mice lung at day 0. DPP4 inhibitors or vehicle control were given to mice starting from one day before LPS injection (day −1).
All animals were sacrificed at day 3.5 after LPS injection. Bronchoalveolar lavage fluid (BALF) was retrieved using standard method. 1 ml 4% formalin was used to inflate the lung, which was subsequently fixed in 4% formalin for 24 hours and preserved in 70% EtOH until histological process.
For readouts, total protein content in BALF was quantified using BCA assay; pulmonary inflammation and damage were assessed using H & E staining.

[3] = Pharmacokinetic profiling, plasma and lung levels after intratracheal delivery in the rat; assay type: in vivo; conditions: Male, Sprague Dawley strain, 2 mg/kg, 1 mg/ml in PBS; for MRT inf: read-out: MRT0-inf
Description: To assess the time course of the plasma and lung exposure of compounds disclosed herein, rodents were dosed IT with an exemplary compound of the present disclosure. The plasma and lung samples were taken at different time points. The drug levels were measured by LCMS.

AEC2s = assay: Single cell RNA-sequencing from the lungs of mice (proliferating cell types); assay type: in vivo; conditions: mouse lung, 0.5 mg/kg IT; for cell types proliferative in response to treatment: animals sacrificed 2 and 4 days after dosing (FIG. 5)
Description: Single cell RNA-sequencing from the lungs of mice was performed to understand which cell types are proliferative in response to compound 46 treatment.

Human DPP4 = target: T1, Human DPP4 (Homo sapiens, UniProt P27487); assay: DPP4 activity assay (DPP4 Activity Assay Kit, fluorescent substrate); assay type: biochemical; conditions: Human DPP4; read-out: DPP4 inhibition IC50 [nM])
T1 construct: purchased Sigma-Aldrich MAK088
T1 sequence (P27487 whole entry): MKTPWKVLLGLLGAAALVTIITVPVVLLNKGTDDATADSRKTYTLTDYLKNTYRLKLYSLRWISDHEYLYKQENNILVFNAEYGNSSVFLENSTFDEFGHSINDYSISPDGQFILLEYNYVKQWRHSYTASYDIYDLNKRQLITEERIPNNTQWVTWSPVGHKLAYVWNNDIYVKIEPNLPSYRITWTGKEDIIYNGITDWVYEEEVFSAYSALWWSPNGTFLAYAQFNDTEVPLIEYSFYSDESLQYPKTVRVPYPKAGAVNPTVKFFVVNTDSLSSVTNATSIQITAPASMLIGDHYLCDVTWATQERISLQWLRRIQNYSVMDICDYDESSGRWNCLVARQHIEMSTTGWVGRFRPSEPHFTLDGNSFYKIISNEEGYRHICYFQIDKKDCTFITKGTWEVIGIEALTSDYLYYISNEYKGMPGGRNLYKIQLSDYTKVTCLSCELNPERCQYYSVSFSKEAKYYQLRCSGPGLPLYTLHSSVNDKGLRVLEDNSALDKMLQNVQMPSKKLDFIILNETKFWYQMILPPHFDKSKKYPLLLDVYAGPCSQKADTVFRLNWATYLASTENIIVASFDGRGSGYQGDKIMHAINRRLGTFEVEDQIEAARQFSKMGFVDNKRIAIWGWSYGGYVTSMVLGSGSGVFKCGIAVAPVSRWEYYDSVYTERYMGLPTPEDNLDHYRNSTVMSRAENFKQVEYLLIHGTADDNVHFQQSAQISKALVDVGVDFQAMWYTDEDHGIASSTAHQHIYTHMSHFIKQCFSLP
How it was run: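 Human DPP4 activity measured with a commercial kit: test compound in assay buffer mixed with a fluorogenic substrate cleaved by the enzyme. Fluorescence read every 1 minute over 20 minutes.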

[4] = Pharmacokinetic profiling, plasma and lung levels after intratracheal or inhalation delivery in the mouse; assay type: in vivo; conditions: for Kp: read-out: AUC ratio; for AUC(0-t): read-out: AUC0-24; for MRT inf: read-out: MRT0-inf
[5] = Mouse, Male, CD-1 strain, Intratracheal, 2 mg/kg, 1 mg/ml in PBS, Lung
[6] = Mouse, Male, CD-1 strain, Intratracheal, 2 mg/kg, 1 mg/ml in PBS, Plasma
[7] = inhaled or intranasal, Mouse, Male, CD-1 strain, Inhalation, 10 mg/ml in PBS for 15 mins, Lung
[8] = inhaled or intranasal, Mouse, Male, CD-1 strain, Inhalation, 10 mg/ml in PBS for 15 mins, Plasma
[9] = inhaled or intranasal, Mouse, Male, CD-1 strain, Intratracheal, 2 mg/kg, 1 mg/ml in PBS, Lung
[10] = inhaled or intranasal, Mouse, Male, CD-1 strain, Intratracheal, 2 mg/kg, 1 mg/ml in PBS, Plasma
[11] = mouse, IT dosing at 2 mg/kg (FIG. 2)

SMILES: CCCCCCN(Cc1cn(CCOCCOCCOC(=O)c2nc(C(F)(F)F)n3c2CN(C(=O)C[C@H](N)Cc2cc(F)c(F)cc2F)CC3)nn1)C[C@H](O)[C@@H](O)[C@H](O)[C@H](O)CO [Compound 46, 2-(2-(2-(4-((hexyl(2,3,4,5,6-pentahydroxyhexyl)amino)methyl)-1H-1,2,3-triazol-1-yl)ethoxy)ethoxy)ethyl 7-((R)-3-amino-4-(2,4,5-trifluorophenyl)butanoyl)-3-(trifluoromethyl)-5,6,7,8-tetrahydroimidazo[1,5-a]pyrazine-1-carboxylate]
- efficacy in combination with Nintedanib ([1]; bleomycin model, listed as Compound 46, 0.5 mg/kg): synergistic efficacy
- efficacy in combination with Nintedanib ([1]; bleomycin model, listed as compound 46, 0.5 mg/kg): impressive and synergistic efficacy
- minimal efficacious dose ([1]; bleomycin model, every four-day intratracheal dosing regime): 0.5 mg/kg
- efficacy in the bleomycin induced pulmonary fibrosis model ([1]; mouse, intratracheally 0.5 mg/kg every four days, body weight, BALF protein, fibrotic area, modified Ashcroft scores (FIG. 3)): displayed efficacy; also recorded: rescue of key metrics including body weight, BALF protein content, fibrotic area, and histological scoring
- minimal efficacious dose [2]: 0.02 mg/kg
- AUC0-24 ([3]; Lung): 658004 ng·h/g
- AUC0-inf ([3]; Lung): 4738852 ng·h/g
- AUC ratio ([3]; Plasma): 1
- Cmax ([3]; inhaled or intranasal, Lung): 41400 ng/g
- Tmax ([3]; inhaled or intranasal, Lung): 0.25 h
- half-life ([3]; inhaled or intranasal, Lung): 119 h
- Kp ([3]; inhaled or intranasal, Lung, read-out: AUC ratio): 145
- MRT inf ([3]; inhaled or intranasal, Lung): 186 h
- Cmax ([3]; inhaled or intranasal, Plasma): 14700 ng/mL
- Tmax ([3]; inhaled or intranasal, Plasma): 0.25 h
- half-life ([3]; inhaled or intranasal, Plasma): 68.8 h
- AUC(0-t) ([3]; inhaled or intranasal, Plasma, read-out: AUC0-24): 18000 ng·h/mL
- AUC0-inf ([3]; inhaled or intranasal, Plasma, read-out: AUC0-inf): 18600 ng·h/mL
- MRT inf ([3]; inhaled or intranasal, Plasma): 6 h
- accumulation of AEC2s after treatment (AEC2s; 2 and 4 days after dosing): time-dependent accumulation of AEC2s
- cell types proliferative in response to treatment (AEC2s; listed as Compound 46, 0.5 mg/kg): selectively expanded AEC2s
- cell types proliferative in response to treatment (AEC2s; listed as compound 46, 0.5 mg/kg): only cycling and transitional AEC2s were induced to proliferate
- IC50 (Human DPP4): 0.15 nM
- AUC0-inf ([4]; Mouse, Male, CD-1 strain, Inhalation, 10 mg/ml in PBS for 15 mins, Lung): 509,951 ng · h/g
- AUC ratio ([4]; Mouse, Male, CD-1 strain, Inhalation, 10 mg/ml in PBS for 15 mins, Plasma): 1
- AUC0-24 [4, 5]: 258,902 ng · h/g
- AUC0-inf [4, 5]: 1,082,408 ng · h/g
- Tmax [4, 5]: 0.25 h
- Kp [4, 5]: 1350
- AUC ratio [4, 6]: 1
- AUC(0-t) [4, 6]: 728 ng·h/mL
- AUC0-inf ([4]; Mouse, Male, CD-1 strain, Intratracheal, 2 mg/kg, 1 mg/ml in PBS, Plasma, read-out: AUC0-inf): 729 ng·h/mL
- MRT inf [4, 6]: 1.88 h
- Cmax [4, 7]: 20900 ng/g
- Tmax [4, 7]: 0.25 h
- Kp [4, 7]: 9240
- Cmax [4, 8]: 35.9 ng/mL
- Tmax [4, 8]: 0.5 h
- half-life [4, 8]: 1.5 h
- AUC(0-t) [4, 8]: 53.4 ng·h/mL
- AUC0-inf ([4]; inhaled or intranasal, Mouse, Male, CD-1 strain, Inhalation, 10 mg/ml in PBS for 15 mins, Plasma, read-out: AUC0-inf): 55.2 ng·h/mL
- MRT inf [4, 8]: 1.69 h
- Cmax [4, 9]: 24600 ng/g
- half-life [4, 9]: 54.1 h
- MRT inf [4, 9]: 80.6 h
- Cmax [4, 10]: 435 ng/mL
- Tmax [4, 10]: 0.25 h
- half-life [4, 10]: 1.28 h
- plasma and lung exposure profiles compared to retagliptin [4, 11]: significantly higher plasma and lung exposure profiles compared to retagliptin
- time retained in the lung [4, 11]: 7 days
